Biological target: T1, HPK1 (Homo sapiens, UniProt Q92918)
T1 construct: A HiBiT tag was introduced by CRISPR on the N terminus of HPK1 in Jurkat cells; host or cells: Jurkat cells (ATCC TIB-152), monoclonal line with CRISPR knock-in of HiBiT at the endogenous HPK1 locus
Assay: HPK1 Cellular HiBit Degradation Assay
Type: cell-based
Conditions: HiBiT HPK1 Jurkat cells, 24 hrs; for DC50: concentration at which 50% of HPK1 was remaining, read-out: DC50 Category; for Dmax: Jurkat, maximum degradation vs DMSO vehicle control, read-out: Dmax Category
Method in brief: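 HiBiT-HPK1 Jurkat (CRISPR, N-term tag), 3×10^4 cells/well, RPMI 1640 + 10% FBS; CTMs 10 uM–0.1 nM, 11 pts; 24 hrs, 37° C/5% CO2; lytic HiBiT luminescence; % remaining vs DMSO, parental background subtracted; 4-parameter fit → DC50, Dmax.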

T1 sequence (Q92918 whole entry): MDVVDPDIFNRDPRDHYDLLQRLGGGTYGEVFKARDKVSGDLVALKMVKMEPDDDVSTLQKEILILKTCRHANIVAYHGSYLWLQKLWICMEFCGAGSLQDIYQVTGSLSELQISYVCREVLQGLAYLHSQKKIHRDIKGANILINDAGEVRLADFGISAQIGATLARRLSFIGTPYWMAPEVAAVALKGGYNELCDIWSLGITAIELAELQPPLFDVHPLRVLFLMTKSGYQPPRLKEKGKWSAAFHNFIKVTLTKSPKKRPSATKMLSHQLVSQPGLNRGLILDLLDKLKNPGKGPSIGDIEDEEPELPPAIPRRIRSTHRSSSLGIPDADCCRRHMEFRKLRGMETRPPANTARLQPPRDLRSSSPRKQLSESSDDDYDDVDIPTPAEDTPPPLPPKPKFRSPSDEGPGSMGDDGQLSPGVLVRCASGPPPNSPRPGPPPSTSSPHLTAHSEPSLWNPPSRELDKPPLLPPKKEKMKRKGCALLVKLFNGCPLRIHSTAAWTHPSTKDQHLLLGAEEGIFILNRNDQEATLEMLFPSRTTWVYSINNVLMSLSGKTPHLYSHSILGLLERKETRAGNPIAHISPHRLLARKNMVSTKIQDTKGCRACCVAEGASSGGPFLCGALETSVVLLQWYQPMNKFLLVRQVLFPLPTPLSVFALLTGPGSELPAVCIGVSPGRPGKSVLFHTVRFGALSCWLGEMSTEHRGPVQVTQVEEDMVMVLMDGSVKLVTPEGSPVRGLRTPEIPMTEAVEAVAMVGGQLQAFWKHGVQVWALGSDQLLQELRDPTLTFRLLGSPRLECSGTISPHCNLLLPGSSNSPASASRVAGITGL

Row | Structure (SMILES) | DC50 | Dmax
1 | CC(C)n1cnc2cc(-c3ccc4c(c3)N([C@H]3C[C@@H](N5CCCCC5)C3)C(=O)C43CCN(C(=O)C4(C)CCN(C(=O)[C@H]5CC[C@H](Oc6ccc(C7CCC(=O)NC7=O)cn6)CC5)CC4)CC3)nc(Nc3ccccc3F)c21 (mixture of isomers) [Example 105, (3RS)-3-(6-{1[(1R,4R)-4-{4-[(6-{4-[(2-fluorophenyl)amino]-3-(propan-2-yl)-3H-imidazo[4,5-c]pyridin-6-yl}-2-oxo-1-[(1S,3S)-3-(piperidin-1-yl)cyclobutyl]-1,2-dihydrospiro[indole-3,4′-piperidin]-1′-yl)carbonyl]-4-methylpiperidine-1-carbonyl}cyclohexyl]oxy}pyridin-3-yl)piperidine-2,6-dione] | < 100 nM | > 85%
2 | CC(C)n1cnc2cc(-c3ccc4c(c3)N([C@H]3C[C@@H](N5CCCCC5)C3)C(=O)C43CCN(C(=O)C4(C)CCN(C(=O)[C@H]5CC[C@H](Oc6ccc(C7CCC(=O)NC7=O)cn6)CC5)CC4)CC3)nc(Nc3ccncc3F)c21 (mixture of isomers) [Example 106] | < 100 nM | 70 to 85%
3 | CC(C)n1cnc2cc(-c3ccc4c(c3)N([C@H]3C[C@@H](N5CCCCC5)C3)C(=O)C43CCN(C(=O)C4(C)CCN(C(=O)C5CCN(c6ccc(C7CCC(=O)NC7=O)cc6)CC5)CC4)CC3)nc(Nc3ccccc3F)c21 (mixture of isomers) [Example 110, (3RS)-3-[4-(4-{4-[(6-{4-[(2-fluorophenyl)amino]-3-(propan-2-yl)-3H-imidazo[4,5-c]pyridin-6-yl}-2-oxo-1-[(1S,3S)-3-(piperidin-1-yl)cyclobutyl]-1,2-dihydrospiro[indole-3,4′-piperidin]-1′-yl)carbonyl]-4-methylpiperidine-1-carbonyl}piperidin-1-yl)phenyl]piperidine-2,6-dione] | < 100 nM | > 85%
4 | CC(C)n1cnc2cc(-c3ccc4c(c3)N([C@H]3C[C@@H](N5CCCCC5)C3)C(=O)C43CCN(C(=O)C4(C)CCN(C(=O)C5CCN(c6ccc(C7CCC(=O)NC7=O)cc6)CC5)CC4)CC3)nc(NC3CC3)c21 (mixture of isomers) [Example 111, (3RS)-3-(4-{4-[4-({6-[4-(cyclopropylamino)-3-(propan-2-yl)-3H-imidazo[4,5-c]pyridin-6-yl]-2-oxo-1-[(1S,3S)-3-(piperidin-1-yl)cyclobutyl]-1,2-dihydrospiro[indole-3,4′-piperidin]-1′-yl}carbonyl)-4-methylpiperidine-1-carbonyl]piperidin-1-yl}phenyl)piperidine-2,6-dione] | < 100 nM | 70 to 85%
5 | CC(C)n1cnc2cc(-c3ccc4c(c3)N([C@H]3C[C@@H](N5CCCCC5)C3)C(=O)C43CCN(C(=O)C4(C)CCN(C(=O)C5CCN(c6ccc(C7CCC(=O)NC7=O)cc6)CC5)CC4)CC3)nc(Nc3ccncc3F)c21 (mixture of isomers) [Example 112, (3RS)-3-[4-(4-{4-[(6-{4-[(3-fluoropyridin-4-yl)amino]-3-(propan-2-yl)-3H-imidazo[4,5-c]pyridin-6-yl}-2-oxo-1-[(1S,3S)-3-(piperidin-1-yl)cyclobutyl]-1,2-dihydrospiro[indole-3,4′-piperidin]-1′-yl)carbonyl]-4-methylpiperidine-1-carbonyl}piperidin-1-yl)phenyl]piperidine-2,6-dione] | < 100 nM | 70 to 85%
6 | CC(C)n1cnc2cc(-c3ccc4c(c3)N([C@H]3C[C@@H](N5CCCCC5)C3)C(=O)C43CCN(C(=O)C4(C)CCN(C(=O)C5CCN(c6ccc(C7CCC(=O)NC7=O)cn6)CC5)CC4)CC3)nc(NC3CC3)c21 (mixture of isomers) [Example 113, (3RS)-3-(6-{4-[4-({6-[4-(cyclopropylamino)-3-(propan-2-yl)-3H-imidazo[4,5-c]pyridin-6-yl]-2-oxo-1-[(1S,3S)-3-(piperidin-1-yl)cyclobutyl]-1,2-dihydrospiro[indole-3,4′-piperidin]-1′-yl}carbonyl)-4-methylpiperidine-1-carbonyl]piperidin-1-yl}pyridin-3-yl)piperidine-2,6-dione] | < 100 nM | 70 to 85%
7 | CC(C)n1cnc2cc(-c3ccc4c(c3)N([C@H]3C[C@@H](N5CCCCC5)C3)C(=O)C43CCN(C(=O)C4(C)CCN(C(=O)C5CCN(c6ccc(C7CCC(=O)NC7=O)cn6)CC5)CC4)CC3)nc(Nc3ccccc3F)c21 (mixture of isomers) [Example 114, (3RS)-3-[6-(4-{4-[(6-{4-[(2-fluorophenyl)amino]-3-(propan-2-yl)-3H-imidazo[4,5-c]pyridin-6-yl}-2-oxo-1-[(1S,3S)-3-(piperidin-1-yl)cyclobutyl]-1,2-dihydrospiro[indole-3,4′-piperidin]-1′-yl)carbonyl]-4-methylpiperidine-1-carbonyl}piperidin-1-yl)pyridin-3-yl]piperidine-2,6-dione] | < 100 nM | 70 to 85%
8 | CC(C)n1cnc2cc(-c3ccc4c(c3)N([C@H]3C[C@@H](N5CCCCC5)C3)C(=O)C43CCN(C(=O)C4(C)CCN(C(=O)C5CCN(c6ccc(C7CCC(=O)NC7=O)nc6)CC5)CC4)CC3)nc(NC3CC3)c21 (mixture of isomers) [Example 118, (3RS)-3-(5-{4-[4-({6-[4-(cyclopropylamino)-3-(propan-2-yl)-3H-imidazo[4,5-c]pyridin-6-yl]-2-oxo-1-[(1S,3S)-3-(piperidin-1-yl)cyclobutyl]-1,2-dihydrospiro[indole-3,4′-piperidin]-1′-yl}carbonyl)-4-methylpiperidine-1-carbonyl]piperidin-1-yl}pyridin-2-yl)piperidine-2,6-dione] | < 100 nM | 50 to 70%
9 | CC(C)n1cnc2cc(-c3ccc4c(c3)N([C@H]3C[C@@H](N5CCCCC5)C3)C(=O)C43CCN(C(=O)C4(C)CCN(C(=O)C5CCN(c6ccc(C7CCC(=O)NC7=O)nc6)CC5)CC4)CC3)nc(Nc3ccccc3F)c21 (mixture of isomers) [Example 119, (3RS)-3-[5-(4-{4-[(6-{4-[(2-fluorophenyl)amino]-3-(propan-2-yl)-3H-imidazo[4,5-c]pyridin-6-yl}-2-oxo-1-[(1S,3S)-3-(piperidin-1-yl)cyclobutyl]-1,2-dihydrospiro[indole-3,4′-piperidin]-1′-yl)carbonyl]-4-methylpiperidine-1-carbonyl}piperidin-1-yl)pyridin-2-yl]piperidine-2,6-dione] | < 100 nM | 70 to 85%
10 | CC(C)n1cnc2cc(-c3ccc4c(c3)N([C@H]3C[C@@H](N5CCCCC5)C3)C(=O)C43CCN(C(=O)C4(C)CCN(C(=O)C5CCN(c6ccc(C7CCC(=O)NC7=O)nc6)CC5)CC4)CC3)nc(Nc3ccncc3F)c21 (mixture of isomers) [Example 120, (3RS)-3-[5-(4-{4-[(6-{4-[(3-fluoropyridin-4-yl)amino]-3-(propan-2-yl)-3H-imidazo[4,5-c]pyridin-6-yl}-2-oxo-1-[(1S,3S)-3-(piperidin-1-yl)cyclobutyl]-1,2-dihydrospiro[indole-3,4′-piperidin]-1′-yl)carbonyl]-4-methylpiperidine-1-carbonyl}piperidin-1-yl)pyridin-2-yl]piperidine-2,6-dione] | < 100 nM | 70 to 85%
11 | CC(C)n1cnc2cc(-c3ccc4c(c3)N([C@H]3C[C@@H](N5CCCCC5)C3)C(=O)C43CCN(C(=O)C4(C)CCN(C(=O)CN5CCN(c6ccc(C7CCC(=O)NC7=O)cn6)CC5)CC4)CC3)nc(NC3CC3)c21 (mixture of isomers) [Example 123, (3RS)-3-[6-(4-{2-[4-({6-[4-(cyclopropylamino)-3-(propan-2-yl)-3H-imidazo[4,5-c]pyridin-6-yl]-2-oxo-1-[(1S,3S)-3-(piperidin-1-yl)cyclobutyl]-1,2-dihydrospiro[indole-3,4′-piperidin]-1′-yl}carbonyl)-4-methylpiperidin-1-yl]-2-oxoethyl}piperazin-1-yl)pyridin-3-yl]piperidine-2,6-dione] | < 100 nM | 50 to 70%
12 | Cc1cc(C(=O)N2CCN(c3ccc4c(c3)C(=O)N(C3CCC(=O)NC3=O)C4=O)CC2)ccc1C(=O)N1CCC2(CC1)C(=O)N([C@H]1C[C@@H](N3CCCCC3)C1)c1cc(-c3cc4ncn(C(C)C)c4c(Nc4ccccc4F)n3)ccc12 (mixture of isomers) [Example 124, 2-[(3RS)-2,6-dioxopiperidin-3-yl]-5-(4-{4-[(6-{4-[(2-fluorophenyl)amino]-3-(propan-2-yl)-3H-imidazo[4,5-c]pyridin-6-yl}-2-oxo-1-[(1S,3S)-3-(piperidin-1-yl)cyclobutyl]-1,2-dihydrospiro[indole-3,4′-piperidin]-1′-yl)carbonyl]-3-methylbenzoyl}piperazin-1-yl)-2,3-dihydro-1H-isoindole-1,3-dione] | 100 to 500 nM | 70 to 85%
13 | Cc1cc(C(=O)N2CCC3(CC2)C(=O)N([C@H]2C[C@@H](N4CCCCC4)C2)c2cc(-c4cc5ncn(C(C)C)c5c(Nc5ccccc5F)n4)ccc23)ccc1C(=O)N1CCN(c2ccc3c(c2)C(=O)N(C2CCC(=O)NC2=O)C3=O)CC1 (mixture of isomers) [Example 125, 2-[(3RS)-2,6-dioxopiperidin-3-yl]-5-(4-{4-[(6-{4-[(2-fluorophenyl)amino]-3-(propan-2-yl)-3H-imidazo[4,5-c]pyridin-6-yl}-2-oxo-1-[(1S,3S)-3-(piperidin-1-yl)cyclobutyl]-1,2-dihydrospiro[indole-3,4′-piperidin]-1′-yl)carbonyl]-2-methylbenzoyl}piperazin-1-yl)-2,3-dihydro-1H-isoindole-1,3-dione] | 500 to 1000 nM | 50 to 70%
